Assay results taken from patent publication US20190374563A1, “TREATMENT OF KLEBSIELLA PNEUMONIAE INFECTIONS WITH ANTIBACTERIAL AMINOGLYCOSIDE COMPOUNDS” (Achaogen, Inc., priority 2009, published 2019).
In brackets after ≈: the same amount, converted by molar mass.

What was measured:
[1] = system: K. pneumoniae ATCC 43816 (susceptible); assay: murine neutropenic thigh model; assay type: in vivo
Method: (§1) The in vivo activity of Example 1 in the mouse neutropenic thigh model (Andes and Craig. Antimicrob Agents Chemother. 2002, 46:1665-1670) was determined against seven bacterial strains including susceptible Escherichia coli and Klebsiella pneumoniae; multi-drug resistant (MDR) clinical isolates of E. coli and K. pneumoniae that display resistance to multiple antibiotics (including AGs); MRSA; and two K. pneumoniae carbapenemases (KPC)-expressing strains (see Table 5). For this efficacy model, groups of six CD-1 mice were rendered neutropenic by two intraperitoneal injections of cyclophosphamide. The first injection was 150 mg/kg three days prior to infection (day −4), and the second injection was 100 mg/kg one day prior to infection (day −1). On study day 0, animals were inoculated intramuscularly (0.1 ml) with a known number of colony forming units (CFU) of the specified bacterial strain (ATCC 25922, AECO 1003, ATCC 43816, AKPN 1073, AKPN 1109, ATCC 33591 or ASMA 1030), tailored to the virulence of each strain in the model to maximize bacterial load while avoiding mortality in the untreated control arms. Antibiotics were administered via subcutaneous injection at 2 and 14 hours after bacterial challenge. At 26 hours, infected thigh tissue was harvested, homogenized, and plated to count CFU. Untreated control animals were harvested at 2 hours post-infection to assess the initial bacterial load and at 26 hours post-infection to measure growth in the absence of antibiotic treatment.

[2] = system: E. coli ATCC 25922 (susceptible); assay: murine neutropenic thigh model; assay type: in vivo
Method: as §1

[3] = system: K. pneumoniae AKPN 1109 (KPC-expressing clinical isolate); assay: murine neutropenic thigh model; assay type: in vivo; conditions: highest test dosage; AKPN 1109, challenge 8.3×10^5 CFU; FIG. 4
Method: as §1

[4] = system: E. coli AECO 1003 (MDR, AG-resistant clinical isolate); assay: murine neutropenic thigh model; assay type: in vivo; conditions: highest dosage; AECO 1003, challenge 1.5×10^3 CFU; FIG. 2
Method: as §1, with “Untreated control animals were harvested at 2 hours post-infection to assess the initial bacterial load and at 26 hours post-infection to measure growth in the absence of antibiotic treatment.” left out

[5] = system: P. aeruginosa ATCC 27853; assay: murine septicemia model of infection; assay type: in vivo; conditions: mice, single SC or IV dose 1 hour after IP challenge, mortality for 7 days; ED50 values are mg/kg
Method: (§2) Two models were run on each compound, using E. coli and P. aeruginosa QC bacterial strains. Both studies employed the same design. […] At 1 hour after bacterial challenge, the mice received a single SC or IV dose of vehicle or test substance to assess in vivo anti-infective activity. Mortality was recorded once daily for 7 days after bacterial inoculation.

[6] = system: E. coli ATCC 25922; assay: murine septicemia model of infection; assay type: in vivo; conditions: mice, single SC or IV dose 1 hour after IP challenge, mortality for 7 days; ED50 values are mg/kg
Method: as §2

[7] = system: P. aeruginosa ATCC 27853 (APAE001); assay: MIC assay, CLSI broth microdilution; assay type: cell-based; conditions: Pseudomonas aeruginosa; Table 1; APAE001 is ATCC27853; read-out: MIC APAE001
In short: (§3)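 Test compounds were diluted two-fold at 2× strength in Mueller Hinton Broth, then combined 1:1 with saline-suspended bacteria from an overnight agar colony to reach 5×10^5 CFU/mL. Incubation followed at 35° C. for 20 hours in ambient air, per CLSI reference methods.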

[8] = system: multidrug-resistant (MDR) K. pneumoniae isolates (n = 102); assay: MIC by microdilution, clinical isolates; assay type: cell-based
Method: (§4) The in vitro activity of representative antibacterial aminoglycoside compounds against a collection of 102 K. pneumoniae clinical isolates collected from January 2006 to October 2007 at the University of Pittsburgh Medical Center, and three Cleveland institutions including University Hospitals Case Medical Center, the Cleveland Clinic, and the Louis Stokes Department of Veterans Affairs Medical Center was analyzed. The 102 K. pneumoniae isolates were selected based on a multidrug-resistant (MDR) phenotype (i.e., resistance to >3 antibiotic classes). Twenty-five isolates were KPC carbapenemase producing (KPC-Kp), and were part of a previous study where the β-lactamase background and clonality were characterized (see Endimiani, A., A. M. Hujer, F. Perez, C. R. Bethel, K. M. Hujer, J. Kroeger, M. Oethinger, D. L. Paterson, M. D. Adams, M. R. Jacobs, D. J. Diekema, G. S. Hall, S. G. Jenkins, L. B. Rice, F. C. Tenover, and R. A. Bonomo. 2009. Characterization of blaKPC-containing Klebsiella pneumoniae isolates detected in different institutions in the Eastern USA. J Antimicrob Chemother 63:427-37).
(§5) Minimum inhibitory concentrations (MICs) were performed by microdilution method using cation-adjusted Mueller-Hinton broth, according to the Clinical and Laboratory Standards Institute (CLSI) criteria (see CLSI. 2006. Methods for dilution antimicrobial susceptibility tests for bacteria that grow aerobically; approved standard-Seventh edition. Clinical and Laboratory Standard Institute, Wayne, Pa. CLSI document M7-A7). These MIC assays were conducted following the same protocol as set forth in Example 110. […] The following ATCC control strains were used: Escherichia coli ATCC 25922, Pseudomonas aeruginosa ATCC 27853, and K. pneumoniae ATCC 700603.

[9] = system: K. pneumoniae producing KPC (n = 25); assay: MIC by microdilution, clinical isolates; assay type: cell-based; conditions: Klebsiella pneumoniae, K. pneumoniae producing KPC (n = 25)
Method: as §4, §5

[10] = system: K. pneumoniae AKPN 1073 (MDR, AG-resistant clinical isolate); assay: murine neutropenic thigh model; assay type: in vivo; conditions: two highest dosages; AKPN 1073, challenge 1.3×10^4 CFU; FIG. 3
Method: as §1, with “Untreated control animals were harvested at 2 hours post-infection to assess the initial bacterial load and at 26 hours post-infection to measure growth in the absence of antibiotic treatment.” left out

[11] = system: seven bacterial strains; assay: murine neutropenic thigh model, statements over all strains; assay type: in vivo
Method: as §1

[12] = system: S. aureus ATCC 33591 (MRSA); assay: murine neutropenic thigh model; assay type: in vivo; conditions: two highest dosages; MRSA ATCC 33591, challenge 1.2×10^3 CFU; FIG. 5
Method: as §1, with “Untreated control animals were harvested at 2 hours post-infection to assess the initial bacterial load and at 26 hours post-infection to measure growth in the absence of antibiotic treatment.” left out

[13] = system: E. coli ATCC 25922 (AECO001); assay: MIC assay, CLSI broth microdilution; assay type: cell-based; design: MIC AECO001: unit not given here; conditions: Table 3; E. coli ATCC25922
In short: as §3

[14] = system: A. calcoaceticus AACA005, AAC(6′)-I; assay: MIC assay, aminoglycoside resistant strain; assay type: cell-based; design: unit not given beside the values; conditions: Table 3; A. calcoaceticus AAC(6′)-I
Method: (§6) Minimum inhibitory concentrations (MIC) were determined by reference Clinical and Laboratory Standards Institute (CLSI) broth microdilution methods per M7-A7 [2006]. Quality control ranges utilizing E. coli ATCC 25922, P. aeruginosa ATCC 27853 and S. aureus ATCC 29213, and interpretive criteria for comparator agents were as published in CLSI M100-S17 [2007]. Briefly, serial two-fold dilutions of the test compounds were prepared at 2× concentration in Mueller Hinton Broth. The compound dilutions were mixed in 96-well assay plates in a 1:1 ratio with bacterial inoculum. The inoculum was prepared by suspension of a colony from an agar plate that was prepared the previous day. Bacteria were suspended in sterile saline and added to each assay plate to obtain a final concentration of 5×10^5 CFU/mL. The plates were incubated at 35° C. for 20 hours in ambient air.
(§7) These MIC assays were conducted following the same protocol as set forth in Example 110. As shown, substituted sisomicin derivatives with groups other than methyl at the 6′-position have improved activity against strains expressing the AAC6′-modifying enzymes.

[15] = system: E. coli AECO040, AAC(6′)-I; assay: MIC assay, aminoglycoside resistant strain; assay type: cell-based; design: unit not given beside the values; conditions: Table 3; E. coli AAC(6′)-I
Method: as §6, §7

With `CN[C@@H]1[C@@H](O)[C@@H](O[C@@H]2[C@@H](O)[C@H](O[C@H]3OC(CNCCO)=CC[C@H]3N)[C@@H](N)C[C@H]2NC(=O)[C@@H](O)CCN)OC[C@]1(C)O` [Example 1, 6′-(2-Hydroxy-ethyl)-1-(4-amino-2(S)-hydroxy-butyryl)-sisomicin] the ED50/MIC [1] was 7.4, the ED50/MIC [2] was 8.4 and the “bacterial load after 24 hours of treatment versus initial bacterial load” value [3] was “reduced back to the level of the initial bacterial load”. For the same molecule, the “bacterial titer after 24 hours of treatment versus initial bacterial load” value [4] was “reduced to below the initial bacterial load”, the “ED50/MIC P. aeruginosa” value [5] was 4 and the “ED50/MIC E. Coli” value [6] was <2. The MIC [7] was 1 to 16 µg/mL (≈ 1.69 to 27 µM), the MIC50 ([8]; Klebsiella pneumoniae, Total MDR K. pneumoniae isolates (n = 102), read-out: MIC50) was 0.5 µg/mL (≈ 0.844 µM) and the MIC90 ([8]; Klebsiella pneumoniae, Total MDR K. pneumoniae isolates (n = 102), read-out: MIC90) was 1 µg/mL (≈ 1.69 µM). The MIC ([8]; Klebsiella pneumoniae, all MDR and KPC-Kp strains, read-out: MICs for all strains) was ≤ 4 µg/mL, the “MIC90 lower than that of amikacin” value ([8]; MDR and KPC-Kp strains) was “at least 5 twofold dilutions” and the MIC50 ([9]; read-out: MIC50) was 0.5 µg/mL (≈ 0.844 µM). For the same molecule, the MIC90 ([9]; read-out: MIC90) was 1 µg/mL (≈ 1.69 µM), the “bacterial load after 24 hours of treatment versus initial bacterial load” value [10] was “reduced to below the level of the initial bacterial load” and the “bacterial titers versus initial bacterial load (static level)” value ([11]; all 7 strains) was “reducing bacterial titers back to or below the initial bacterial load”. The “ED50 against gentamicin resistant strains” value ([11]; gentamicin resistant strains) was “efficacious”, the “ratio of in vivo efficacy to in vitro activity (ED50/MIC)” value ([11]; in words) was “comparable to that of gentamicin” and the “in vivo efficacy (ED50) against strains susceptible to gentamicin” value ([11]; strains susceptible to gentamicin, in words) was “comparable to gentamicin”. The “bacterial load after 24 hours of treatment versus initial bacterial load” value [12] was “reduced to below the initial bacterial load”.

In the case of `CNCC1=CC[C@@H](N)[C@@H](O[C@H]2C(O)[C@@H](O[C@H]3OC[C@](C)(O)[C@H](NC)[C@H]3O)[C@H](N)C[C@@H]2N)O1` (stereo partly shown) [Mono-substituted Compound 1], the “MIC AECO001” value [13] is reported as 1, the “MIC AACA005” value [14] is reported as 2 and the “MIC AECO040” value [15] is reported as >64.

`CN[C@@H]1[C@@H](O)[C@@H](O[C@@H]2C(O)[C@H](O[C@H]3OC(CNCCCN)=CC[C@H]3N)[C@@H](N)C[C@H]2N)OC[C@]1(C)O` (stereo partly shown) [Mono-substituted Compound 4] was tested, and the “MIC AECO001” value [13] was 2, the “MIC AACA005” value [14] was 1 and the “MIC AECO040” value [15] was 16.

`CN[C@@H]1[C@@H](O)[C@@H](O[C@@H]2C(O)[C@H](O[C@H]3OC(CNCC4CC4)=CC[C@H]3N)[C@@H](N)C[C@H]2N)OC[C@]1(C)O` (stereo partly shown) [Mono-substituted Compound 2] was tested, and the “MIC AECO001” value [13] was 1, the “MIC AACA005” value [14] was 4 and the “MIC AECO040” value [15] was 1.
